Data as given in article PMC9890698 (BMC Biology, 2023).
Where “and” joins values, the source holds several entries; their conditions need not be identical. Equal entries are not always repeated.

Assays:
Human P2Y12-R = target: T1, Human P2Y12-R (Homo sapiens, UniProt Q9H244); assay: β-arrestin 2 recruitment BRET1 assay (β-arrestin 2-RLuc / P2Y12-R-Venus) in HEK293T cells; assay type: cell-based; details: Fig. S5; P2Y12-R; (+) apyrase; individual replicates
T1 construct: expressed in transfected cells; host or cells: HEK293T/17
Text: We assessed β-arrestin 2 recruitment to the receptor using BRET^1 assay. The assay measures the interaction between β-arrestin 2 fused to the Renilla reniformis luciferase (RLuc) energy donor and the receptor fused to fluorescent Venus energy acceptor (Fig. 3a). The recruitment of cytosolic β-arrestin 2 to the receptor at the plasma membrane in the presence of an agonist will promote a significant increase of the BRET signal compared to the basal state, reflecting the close proximity between the β-arrestin 2 energy donor and the receptor energy acceptor [22]. […]
G protein activation and β-arrestin 2 recruitment were performed as previously described. […] BRET signal between RLuc8 and GFP2 was measured after addition of the luciferase substrate coelenterazine 400a (5 μM). […] BRET signal was recorded after incubation with coelenterazine h (5 μM) for 8 min. For kinetics studies, BRET signal between RLuc and Venus was recorded at 20-s intervals at basal state for the 2 first minutes and then for 5 min after ligand injection. For saturation curves (BRET^1), the expression level of Venus- or RLuc-tagged protein was determined by direct measurement of total fluorescence and luminescence respectively. Total fluorescence was first measured with an excitation filter at 485 nm and an emission filter at 520 nm. […] BRET^2 and BRET^1 readings were collected using a modified Infinite F500 (Tecan Group Ltd). […]

[1] = system: Gαq protein in HEK293T cells (pcDNA3.1); assay: Gαq protein activation BRET2 assay in control HEK293T cells without receptor (pcDNA3.1 / 0 μg); assay type: cell-based, Human; details: Fig. S2a, pcDNA3.1, individual replicates
Text: (§1) As previously described, using a BRET^2 (bioluminescence resonance energy transfer)-based assay, we directly monitored the basal Gαq protein activation by measuring the interaction between Gαq and Gγ2 subunits of the Gαqβ1γ2 heterotrimer complex. Indeed, this assay is based on the non-radiative transfer between the Renilla reniformis luciferase (RLuc8) energy donor fused to the Gαq protein subunit and the fluorescent GFP2 energy acceptor fused to Gγ2 protein subunit (Fig. 1a). […] By contrast, ligand-independent constitutive receptor activation or agonist-induced receptor activation will promote Gαq/Gγ2 subunit dissociation, thereby leading to a decrease of the basal BRET signal (Fig. 1a). […] To preclude any P2Y1-R activation by a passive release of ADP by HEK293T cells, we performed similar experiments in the presence of high concentration of apyrase (0.2U/mL) to degrade any trace of ADP in the medium (Additional File 2: Fig. S2a). Under these conditions, P2Y1-R expression still induces a marked and significant decrease of the basal BRET signal compared to control cells (pcDNA3.1), thereby supporting a P2Y1-R-dependent constitutive activation of Gαq protein. […] Of note, because P2Y1-R and AT1-R were respectively Myc- and HA-tagged and were thus detected using different primary antibodies, their expression at the cell surface cannot be compared between each other’s.
G protein activation and β-arrestin 2 recruitment were performed as previously described. […] BRET signal between RLuc8 and GFP2 was measured after addition of the luciferase substrate coelenterazine 400a (5 μM). […] BRET signal was recorded after incubation with coelenterazine h (5 μM) for 8 min. For kinetics studies, BRET signal between RLuc and Venus was recorded at 20-s intervals at basal state for the 2 first minutes and then for 5 min after ligand injection. For saturation curves (BRET^1), the expression level of Venus- or RLuc-tagged protein was determined by direct measurement of total fluorescence and luminescence respectively. Total fluorescence was first measured with an excitation filter at 485 nm and an emission filter at 520 nm. Then, the same sample was incubated for 8 minutes with 5 μM coelenterazine h and the total luminescence was measured. BRET^2 and BRET^1 readings were collected using a modified Infinite F500 (Tecan Group Ltd). The BRET^2 signal was calculated by the ratio of emission of GFP2 (510–540 nm) to RLuc8 (370–450 nm) and the BRET^1 signal by the ratio of emission of Venus (520–570 nm) to RLuc (370–480 nm). Sometimes, results are expressed as the Net BRET computed by deducting the BRET background signal (obtained in the presence of the energy donor alone) from the BRET signal (acquired from cells expressing both the energy donor and acceptor).

HEK293T cells (pcDNA3.1) = assay: β-arrestin 2 BRET1 basal signal in control HEK293T cells without receptor (pcDNA3.1); assay type: cell-based, Human; details: Fig. S5, (+) apyrase, individual replicates
Text: Supplement 12915_2023_1528_MOESM8_ESM.xlsx, sheet "Fig. S5" | column: (+) apyrase

Human P2Y1-R [2] = target: T2, Human P2Y1-R (Homo sapiens, UniProt P47900); assay: Gαq protein activation BRET2 assay (Gαq-RLuc8/GFP2-Gγ2/Gβ1) in HEK293T cells expressing P2Y1-R; assay type: cell-based; details: Fig. S2a, P2Y1-R, individual replicates
T2 construct: expressed in transfected cells; host or cells: HEK293T/17
Text: as §1
(§2) Human P2Y1-R (NCBI Reference Sequence: NM_002563.2) and P2Y12-R (NCBI Reference Sequence: NM_022788.3) were fused to double Myc epitope and rat AT1-R (NCBI Reference Sequence: NM_030985.4) to HA tag in N-terminus extracellular region. Alternatively, receptors were also fused to Venus tag in C-terminus intracellular region. Plasmids encoding Gαq-RLuc8, GFP2-Gγ2 and untagged Gβ1 were previously described. ADP was purchased from Sigma-Aldrich/Merck (Darmstadt, Germany). […] The Gq inhibitor (FR900359) was kindly supplied by Evi Kostenis (University of Bonn. Germany).
G protein activation and β-arrestin 2 recruitment were performed as previously described. Briefly, vectors encoding receptors, Gαq-RLuc8, GFP2-Gγ2, Gβ1, or β-arrestin 2 were transiently cotransfected into HEK293T/17 cells as indicated in the figure legends. Forty-eight hours after transfection, cells were washed and resuspended in PBS containing 0.1% (w/v) glucose at room temperature and then distributed (80 μg proteins/well) in a 96-well microplate (PerkinElmer). For G protein activation experiments (BRET^2), cells were incubated in the absence (basal BRET signal) or in the presence of ligand for 1 minute. BRET signal between RLuc8 and GFP2 was measured after addition of the luciferase substrate coelenterazine 400a (5 μM). For β-arrestin 2 recruitment (BRET^1), cells were stimulated with ligands for 5 or 15 min. BRET signal was recorded after incubation with coelenterazine h (5 μM) for 8 min. For kinetics studies, BRET signal between RLuc and Venus was recorded at 20-s intervals at basal state for the 2 first minutes and then for 5 min after ligand injection. For saturation curves (BRET^1), the expression level of Venus- or RLuc-tagged protein was determined by direct measurement of total fluorescence and luminescence respectively. Total fluorescence was first measured with an excitation filter at 485 nm and an emission filter at 520 nm. Then, the same sample was incubated for 8 minutes with 5 μM coelenterazine h and the total luminescence was measured. BRET^2 and BRET^1 readings were collected using a modified Infinite F500 (Tecan Group Ltd). The BRET^2 signal was calculated by the ratio of emission of GFP2 (510–540 nm) to RLuc8 (370–450 nm) and the BRET^1 signal by the ratio of emission of Venus (520–570 nm) to RLuc (370–480 nm). […]

Human P2Y1-R [3] = target: T2, Human P2Y1-R; assay: β-arrestin 2 recruitment BRET1 assay (β-arrestin 2-RLuc / P2Y1-R-Venus) in HEK293T cells; assay type: cell-based; details: Fig. S5; P2Y1-R; (+) apyrase; individual replicates
Text: We assessed β-arrestin 2 recruitment to the receptor using BRET^1 assay. The assay measures the interaction between β-arrestin 2 fused to the Renilla reniformis luciferase (RLuc) energy donor and the receptor fused to fluorescent Venus energy acceptor (Fig. 3a). The recruitment of cytosolic β-arrestin 2 to the receptor at the plasma membrane in the presence of an agonist will promote a significant increase of the BRET signal compared to the basal state, reflecting the close proximity between the β-arrestin 2 energy donor and the receptor energy acceptor [22].
as §2
G protein activation and β-arrestin 2 recruitment were performed as previously described. Briefly, vectors encoding receptors, Gαq-RLuc8, GFP2-Gγ2, Gβ1, or β-arrestin 2 were transiently cotransfected into HEK293T/17 cells as indicated in the figure legends. Forty-eight hours after transfection, cells were washed and resuspended in PBS containing 0.1% (w/v) glucose at room temperature and then distributed (80 μg proteins/well) in a 96-well microplate (PerkinElmer). For G protein activation experiments (BRET^2), cells were incubated in the absence (basal BRET signal) or in the presence of ligand for 1 minute. BRET signal between RLuc8 and GFP2 was measured after addition of the luciferase substrate coelenterazine 400a (5 μM). For β-arrestin 2 recruitment (BRET^1), cells were stimulated with ligands for 5 or 15 min. BRET signal was recorded after incubation with coelenterazine h (5 μM) for 8 min. For kinetics studies, BRET signal between RLuc and Venus was recorded at 20-s intervals at basal state for the 2 first minutes and then for 5 min after ligand injection. For saturation curves (BRET^1), the expression level of Venus- or RLuc-tagged protein was determined by direct measurement of total fluorescence and luminescence respectively. Total fluorescence was first measured with an excitation filter at 485 nm and an emission filter at 520 nm. Then, the same sample was incubated for 8 minutes with 5 μM coelenterazine h and the total luminescence was measured. BRET^2 and BRET^1 readings were collected using a modified Infinite F500 (Tecan Group Ltd). The BRET^2 signal was calculated by the ratio of emission of GFP2 (510–540 nm) to RLuc8 (370–450 nm) and the BRET^1 signal by the ratio of emission of Venus (520–570 nm) to RLuc (370–480 nm). Sometimes, results are expressed as the Net BRET computed by deducting the BRET background signal (obtained in the presence of the energy donor alone) from the BRET signal (acquired from cells expressing both the energy donor and acceptor).

T1 sequence (Q9H244 whole entry): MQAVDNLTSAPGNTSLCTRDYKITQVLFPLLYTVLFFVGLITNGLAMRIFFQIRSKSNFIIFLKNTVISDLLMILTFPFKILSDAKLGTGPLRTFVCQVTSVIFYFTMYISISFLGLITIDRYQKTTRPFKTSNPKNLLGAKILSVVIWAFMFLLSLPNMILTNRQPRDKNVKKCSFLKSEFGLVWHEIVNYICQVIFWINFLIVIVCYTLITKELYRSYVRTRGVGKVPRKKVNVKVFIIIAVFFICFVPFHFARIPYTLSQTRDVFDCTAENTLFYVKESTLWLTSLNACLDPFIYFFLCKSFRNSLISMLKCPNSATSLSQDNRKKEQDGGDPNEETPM
T2 sequence (P47900 whole entry): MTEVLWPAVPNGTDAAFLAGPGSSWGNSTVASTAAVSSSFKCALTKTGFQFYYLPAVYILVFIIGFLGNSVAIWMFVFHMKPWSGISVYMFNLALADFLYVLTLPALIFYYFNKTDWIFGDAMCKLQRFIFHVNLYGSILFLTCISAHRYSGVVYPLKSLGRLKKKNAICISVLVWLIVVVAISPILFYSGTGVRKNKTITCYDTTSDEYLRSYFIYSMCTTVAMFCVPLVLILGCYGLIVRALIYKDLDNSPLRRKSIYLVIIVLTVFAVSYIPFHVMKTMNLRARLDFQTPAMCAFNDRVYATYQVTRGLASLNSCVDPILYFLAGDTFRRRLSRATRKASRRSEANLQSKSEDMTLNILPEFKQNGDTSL

Basal BRET signal (Human P2Y12-R): 0.9157 and 0.9699 and 0.8998 and 0.9124 | Basal BRET signal (Human P2Y1-R [2]; (+) apyrase 1 min): 0.9128 and 0.7477 and 0.6192 and 0.8378 | Basal BRET signal (Human P2Y1-R [2]; (+) apyrase 5 min): 0.6209 and 0.8174 and 0.9018 and 0.7551 | Basal BRET signal (Human P2Y1-R [2]; (+) apyrase 10 min): 0.6295 and 0.8302 and 0.9025 and 0.7259 | Basal BRET signal (Human P2Y1-R [3]): 0.9766 and 1.039 and 0.9705 and 1.011
Substance: apyrase
Basal BRET signal ([1]; (+) apyrase 1 min): 2.035 and 1.852 and 1.218 and 1.795 | Basal BRET signal ([1]; (+) apyrase 5 min): 1.227 and 1.746 and 2.0243 and 1.801 | Basal BRET signal ([1]; (+) apyrase 10 min): 1.204 and 1.749 and 1.987 and 1.796 | Basal BRET signal (HEK293T cells (pcDNA3.1)): 0.8767 and 0.9382 and 0.883 and 0.8696
